From the NIST ThermoML archive (doi:10.1021/je700710d) come the findings set out here.

For this series the following is noted: 298.15 K, 101.33 kPa, Liquid; for viscosity: Capillary tube (Ostwald / Ubbelohde) method.

Numbers after ± are expanded uncertainties.

Turning to `CCOS(=O)(=O)[O-].CCn1cc[n+](C)c1` [1-ethyl-3-methylimidazolium ethyl sulfate], the viscosity is 97.58 ± 4 mPa·s. Besides, for the setting “Vibrating tube method”, the mass density is 1237.63 ± 8.3 kg/m3.

`CCO` [ethanol]: the mass density amounted to 785.46 ± 0.47 kg/m3 and the viscosity stood at 1.082 ± 0.009 mPa·s.

The term viscosity denotes the resistance of a fluid to flow. As a reminder, the mass density is mass per unit of volume.
